Legend:
[1] = tested on: A549 (human lung carcinoma) cells; assay: Cell Viability Assay (CellTiter-Glo), A549; type: cell-based; details: Homo sapiens, A549, 72 h
Method in brief: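 Luminescent ATP read-out (CellTiter-Glo) after 72 h compound treatment of cells seeded overnight at 1.67E+04 cells/mL in RPMI 1640, 10% FBS; signal relative to DMSO, IC50 by 4-parameter logistic model.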

[2] = tested on: MIA PaCa-2 (human pancreatic carcinoma) cells; assay: Cell Viability Assay (CellTiter-Glo), MIA PaCa-2; type: cell-based
Procedure: Serially-diluted compound or DMSO was added to the cells, and plates were incubated at 37° C., 5% CO2 for 72 h. Cell viability was measured using a CellTiter-Glo® Luminescent Cell Viability Assay kit (Promega) according to the manufacturer's protocol. The luminescence signal of treated samples was normalized to DMSO control, and data were analyzed using a 4-parameter logistic model to calculate IC50 values.

[3] = target: KRAS G12C (Homo sapiens (Human), UniProt P01116, C118A/G12C); assay: 2 h coupled exchange assay; type: biochemical; details: Avg 2 h Coupled exchange IC50, 2 h compound pre-incubation
Sequence of KRAS G12C (P01116 other isoform, or with tags, fused parts or gaps G12C/C118A): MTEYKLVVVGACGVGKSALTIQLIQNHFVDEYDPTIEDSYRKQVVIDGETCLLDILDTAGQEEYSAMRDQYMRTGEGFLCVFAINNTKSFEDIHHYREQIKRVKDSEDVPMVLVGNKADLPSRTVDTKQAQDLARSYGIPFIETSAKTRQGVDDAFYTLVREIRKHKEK
Procedure: The term “2 h coupled exchange assay” or “20 h coupled exchange assay” as used herein refers to the assay described in the Section entitled “BIOLOGICAL EVALUATION.”

| IC50 [1] [nM] | IC50 ([2]; Homo sapiens, MIA PaCa-2, 72 h) [nM] | IC50 [3] [nM] | IC50 ([2]; 72 h) [nM] | Structure (SMILES) |
| --- | --- | --- | --- | --- |
| 3690 | 918 | 72 | – | C=CC(=O)N1CC2(CCN(c3nc4c(c(-c5ccccc5F)c3C#N)CCC(c3scnc3C)=C4)C2)C1 [Example 23-7, 4-(2-fluorophenyl)-7-(4-methyl-1,3-thiazol-5-yl)-2-(2-(2-propenoyl)-2,6-diazaspiro[3.4]octan-6-yl)-5,6-dihydro-3-quinolinecarbonitrile] |
| 4070 | 754 | 108 | – | C=CC(=O)N1CC2(CCN(c3nc4c(c(-c5ccccc5F)c3C#N)CC[C@](C)(c3scnc3C)C4)C2)C1 [Example 23-12, (7S)-4-(2-fluorophenyl)-7-methyl-7-(4-methyl-1,3-thiazol-5-yl)-2-(2-(2-propenoyl)-2,6-diazaspiro[3.4]octan-6-yl)-5,6,7,8-tetrahydro-3-quinolinecarbonitrile] |
| > 5000 | 707 | 98 | – | C=CC(=O)N1CC2(CCN(c3nc4c(c(-c5ccc(F)cc5F)c3C#N)COC(c3scnc3C)C4)C2)C1 [Example 23-17, (7R)-4-(2,4-difluorophenyl)-7-(4-methyl-1,3-thiazol-5-yl)-2-(2-(2-propenoyl)-2,6-diazaspiro[3.4]octan-6-yl)-7,8-dihydro-5H-pyrano[4,3-b]pyridine-3-carbonitrile (7S)-4-(2,4-difluorophenyl)-7-(4-methyl-1,3-thiazol-5-yl)-2-(2-(2-propenoyl)-2,6-diazaspiro[3.4]octan-6-yl)-7,8-dihydro-5H-pyrano[4,3-b]pyridine-3-carbonitrile] |
| 3290 | 537 | 87 | – | C=CC(=O)N1CC2(CCN(c3nc4c(c(-c5ccccc5Cl)c3C#N)CCC(c3scnc3C)=C4)C2)C1 [Example 23-19, 4-(2-chlorophenyl)-7-(4-methyl-1,3-thiazol-5-yl)-2-(2-(2-propenoyl)-2,6-diazaspiro[3.4]octan-6-yl)-5,6-dihydro-3-quinolinecarbonitrile] |

The next lines start with the compound.

| Structure (SMILES) | IC50 [1] [nM] | IC50 ([2]; Homo sapiens, MIA PaCa-2, 72 h) [nM] | IC50 [3] [nM] | IC50 ([2]; 72 h) [nM] |
| --- | --- | --- | --- | --- |
| C=CC(=O)N1CC2(CCN(c3nc4c(c(-c5ncccc5C)c3C#N)CCC(c3scnc3C)=C4)C2)C1 [Example 23-1, 4-(3-Methyl-2-pyridinyl)-7-(4-methyl-1,3-thiazol-5-yl)-2-(2-(2-propenoyl)-2,6-diazaspiro[3.4]octan-6-yl)-5,6-dihydro-3-quinolinecarbonitrile] | > 5000 | 507 | 178 | – |
| C=CC(=O)N1CC2(CCN(c3nc4c(c(-c5ccccc5C)c3C#N)CCC(c3scnc3C)C4)C2)C1 [Example 23-2, (7R)-4-(2-methylphenyl)-7-(4-methyl-1,3-thiazol-5-yl)-2-(2-(2-propenoyl)-2,6-diazaspiro[3.4]octan-6-yl)-5,6,7,8-tetrahydro-3-quinolinecarbonitrile (7S)-4-(2-methylphenyl)-7-(4-methyl-1,3-thiazol-5-yl)-2-(2-(2-propenoyl)-2,6-diazaspiro[3.4]octan-6-yl)-5,6,7,8-tetrahydro-3-quinolinecarbonitrile] | 12600 | 164 | 26 | – |
| C=CC(=O)N1CC2(CCN(c3nc4c(c(-c5ccccc5F)c3C#N)COC(c3scnc3C)C4)C2)C1 [Example 23-8, (7R)-4-(2-fluorophenyl)-7-(4-methyl-1,3-thiazol-5-yl)-2-(2-(2-propenoyl)-2,6-diazaspiro[3.4]octan-6-yl)-7,8-dihydro-5H-pyrano[4,3-b]pyridine-3-carbonitrile(7S)-4-(2-fluorophenyl)-7-(4-methyl-1,3-thiazol-5-yl)-2-(2-(2-propenoyl)-2,6-diazaspiro[3.4]octan-6-yl)-7,8-dihydro-5H-pyrano[4,3-b]pyridine-3-carbonitrile] | > 5000 | 2240 | 169 | – |
| C=CC(=O)N1CC2(CCN(c3nc4c(c(-c5ncccc5C)c3C#N)CC[C@](C)(c3scnc3C)C4)C2)C1 [Example 23-9, (7S)-7-methyl-4-(3-methyl-2-pyridinyl)-7-(4-methyl-1,3-thiazol-5-yl)-2-(2-(2-propenoyl)-2,6-diazaspiro[3.4]octan-6-yl)-5,6,7,8-tetrahydro-3-quinolinecarbonitrile] | 16200 | 916 | 531 | – |
| C=CC(=O)N1CC2(CCN(c3nc4c(c(-c5ncccc5C)c3C#N)CC[C@@](C)(c3scnc3C)C4)C2)C1 [Example 23-10, (7R)-7-methyl-4-(3-methyl-2-pyridinyl)-7-(4-methyl-1,3-thiazol-5-yl)-2-(2-(2-propenoyl)-2,6-diazaspiro[3.4]octan-6-yl)-5,6,7,8-tetrahydro-3-quinolinecarbonitrile] | > 5000 | 478 | 200 | – |
| C=CC(=O)N1CC2(CCN(c3nc4c(c(-c5ccccc5C)c3C#N)CCC(c3scnc3C)=C4)C2)C1 [Example 23-11, 4-(2-methylphenyl)-7-(4-methyl-1,3-thiazol-5-yl)-2-(2-(2-propenoyl)-2,6-diazaspiro[3.4]octan-6-yl)-5,6-dihydro-3-quinolinecarbonitrile] | > 5000 | 637 | 53 | – |
| C=CC(=O)N1CC2(CCN(c3nc4c(c(-c5ccccc5F)c3C#N)CC[C@@](C)(c3scnc3C)C4)C2)C1 [Example 23-13, (7R)-4-(2-fluorophenyl)-7-methyl-7-(4-methyl-1,3-thiazol-5-yl)-2-(2-(2-propenoyl)-2,6-diazaspiro[3.4]octan-6-yl)-5,6,7,8-tetrahydro-3-quinolinecarbonitrile] | > 5000 | 911 | 39 | – |
| C=CC(=O)N1CC2(CCN(c3nc4c(c(-c5ncccc5C)c3C#N)COC(c3scnc3C)C4)C2)C1 [Example 23-14, (7R)-4-(3-methyl-2-pyridinyl)-7-(4-methyl-1,3-thiazol-5-yl)-2-(2-(2-propenoyl)-2,6-diazaspiro[3.4]octan-6-yl)-7,8-dihydro-5H-pyrano[4,3-b]pyridine-3-carbonitrile (7S)-4-(3-methyl-2-pyridinyl)-7-(4-methyl-1,3-thiazol-5-yl)-2-(2-(2-propenoyl)-2,6-diazaspiro[3.4]octan-6-yl)-7,8-dihydro-5H-pyrano[4,3-b]pyridine-3-carbonitrile] | > 25000 | 1310 | 802 | – |
| C=CC(=O)N1CC2(CCN(c3nc4c(c(-c5ccccc5Cl)c3C#N)COC(c3scnc3C)C4)C2)C1 [Example 23-15, (7R)-4-(2-chlorophenyl)-7-(4-methyl-1,3-thiazol-5-yl)-2-(2-(2-propenoyl)-2,6-diazaspiro[3.4]octan-6-yl)-7,8-dihydro-5H-pyrano[4,3-b]pyridine-3-carbonitrile (7S)-4-(2-chlorophenyl)-7-(4-methyl-1,3-thiazol-5-yl)-2-(2-(2-propenoyl)-2,6-diazaspiro[3.4]octan-6-yl)-7,8-dihydro-5H-pyrano[4,3-b]pyridine-3-carbonitrile] | > 5000 | 972 | 196 | – |
| C=CC(=O)N1CC2(CCN(c3nc4c(c(-c5ccc(F)cc5Cl)c3C#N)CCC(c3scnc3C)=C4)C2)C1 [Example 23-18, 4-(2-chloro-4-fluorophenyl)-7-(4-methyl-1,3-thiazol-5-yl)-2-(2-(2-propenoyl)-2,6-diazaspiro[3.4]octan-6-yl)-5,6-dihydro-3-quinolinecarbonitrile] | 2880 | – | 104 | 591 |
